The values below are quoted from earlier work in patent US20080318986A1, “Ddc Compositions” (priority 2005, published 2008).

Structures are written as SMILES.

The subject of the data set is adenoviral strains. To be noted: literature study; for inhibition of adenoviral strains: Kaneko et al. J. Jpn. Opthalmol. Soc. 107:196-201 (2003).

For the compound `CCCCCCCCCCCCCCCCCCCCCCOCC(C)(COCCCCCCCCCCCCCCCCCCCCCC)CO[C@]1(C(=O)O)C[C@H](OS(=O)(=O)O)[C@@H](NC(C)=O)[C@H]([C@H](OS(=O)(=O)O)[C@@H](COS(=O)(=O)O)OS(=O)(=O)O)O1` [NMSO3], the “inhibition of adenoviral strains” value was “inhibited adenoviral strains”. Further, for the setting “Kaneko et al. 2003, comparison in words only”, the “EC50 values against adenoviral strains (rank among NMSO3, HPMPC, dDC)” value is on record as “lowest EC50 values”.

As to `Nc1ccn([C@H]2CC[C@@H](CO)O2)c(=O)n1` [dDC, 2′,3′-Dideoxycytidine], the “inhibition of adenoviral strains” value is listed as “inhibited adenoviral strains”.

For the compound `Nc1ccn(C[C@@H](CO)OCP(=O)(O)O)c(=O)n1` [HPMPC], the “inhibition of adenoviral strains” value is “inhibited adenoviral strains”.
